pIC50: −log10 of the molar value. Entries after “also recorded” stand apart in the source; their conditions may differ. Where a SMILES comes first, the peptide text is derived from it. Bridges are numbered along the chain shown (N, C = ends).
Columns and labels:
rat α3β2 nAChR = rat α3β2 nAChR (Rattus norvegicus, UniProt P04757+P12390); assay: cell-based
rat α6/α3β2β3 nAChR = rat α6/α3β2β3 nAChR (Rattus norvegicus, UniProt P04757+P12390+P12391+P43143); assay: cell-based
rat α7 nAChR = rat α7 nAChR (Rattus norvegicus, UniProt Q05941); assay: cell-based; format: cell-based
rat α4β2 nAChR = rat α4β2 nAChR (Rattus norvegicus, UniProt P09483+P12390); assay: cell-based; format: cell-based
rat α4β4 nAChR = rat α4β4 nAChR (Rattus norvegicus, UniProt P09483+P12392); assay: cell-based; format: cell-based
rat α3β4 nAChR = rat α3β4 nAChR (Rattus norvegicus, UniProt P04757+P12392); assay: cell-based; format: cell-based
rat α2β2 nAChR = rat α2β2 nAChR (Rattus norvegicus, UniProt P12389+P12390); assay: cell-based; format: cell-based
rat α2β4 nAChR = rat α2β4 nAChR (Rattus norvegicus, UniProt P12389+P12392); assay: cell-based; format: cell-based
human α9α10 nAChR = human α9α10 nAChR (Homo sapiens, UniProt Q9GZZ6+Q9UGM1); assay: cell-based; format: cell-based
[1] = test system: common mammalian nAChR combinations; format: cell-based

Sequence of rat α4β2 nAChR (P09483 31-630 limits assumed): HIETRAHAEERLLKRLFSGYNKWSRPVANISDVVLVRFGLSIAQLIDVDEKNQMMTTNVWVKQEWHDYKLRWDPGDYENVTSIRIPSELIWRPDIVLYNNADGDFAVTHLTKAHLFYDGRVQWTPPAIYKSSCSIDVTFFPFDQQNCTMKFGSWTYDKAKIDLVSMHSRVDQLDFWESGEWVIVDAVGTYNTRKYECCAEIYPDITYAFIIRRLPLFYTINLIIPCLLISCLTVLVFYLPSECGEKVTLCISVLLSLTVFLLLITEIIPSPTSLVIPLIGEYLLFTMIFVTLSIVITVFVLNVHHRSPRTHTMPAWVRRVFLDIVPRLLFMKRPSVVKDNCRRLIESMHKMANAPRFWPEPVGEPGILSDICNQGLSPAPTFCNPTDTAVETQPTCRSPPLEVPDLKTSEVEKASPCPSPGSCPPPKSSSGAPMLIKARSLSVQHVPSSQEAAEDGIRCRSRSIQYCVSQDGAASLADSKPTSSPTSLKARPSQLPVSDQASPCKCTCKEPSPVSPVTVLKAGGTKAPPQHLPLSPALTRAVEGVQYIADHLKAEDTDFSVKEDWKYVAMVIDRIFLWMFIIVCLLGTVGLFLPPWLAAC
Sequence of rat α4β2 nAChR (P12390 25-500 limits assumed): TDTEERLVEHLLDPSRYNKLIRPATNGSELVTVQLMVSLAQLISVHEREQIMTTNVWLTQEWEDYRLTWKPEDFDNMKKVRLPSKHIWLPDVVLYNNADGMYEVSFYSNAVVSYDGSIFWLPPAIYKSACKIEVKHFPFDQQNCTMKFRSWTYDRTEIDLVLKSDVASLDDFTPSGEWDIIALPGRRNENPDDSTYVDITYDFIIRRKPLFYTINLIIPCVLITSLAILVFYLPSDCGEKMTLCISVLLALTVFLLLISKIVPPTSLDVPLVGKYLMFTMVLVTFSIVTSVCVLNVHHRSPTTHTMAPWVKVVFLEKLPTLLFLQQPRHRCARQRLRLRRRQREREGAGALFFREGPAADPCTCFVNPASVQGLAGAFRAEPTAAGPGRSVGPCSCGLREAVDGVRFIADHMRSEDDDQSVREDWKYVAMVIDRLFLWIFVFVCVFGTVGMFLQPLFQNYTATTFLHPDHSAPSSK
Sequence of rat α4β4 nAChR (P09483 31-630 limits assumed): as the sequence (P09483 31-630 limits assumed) above
Sequence of rat α4β4 nAChR (P12392 21-495 limits assumed): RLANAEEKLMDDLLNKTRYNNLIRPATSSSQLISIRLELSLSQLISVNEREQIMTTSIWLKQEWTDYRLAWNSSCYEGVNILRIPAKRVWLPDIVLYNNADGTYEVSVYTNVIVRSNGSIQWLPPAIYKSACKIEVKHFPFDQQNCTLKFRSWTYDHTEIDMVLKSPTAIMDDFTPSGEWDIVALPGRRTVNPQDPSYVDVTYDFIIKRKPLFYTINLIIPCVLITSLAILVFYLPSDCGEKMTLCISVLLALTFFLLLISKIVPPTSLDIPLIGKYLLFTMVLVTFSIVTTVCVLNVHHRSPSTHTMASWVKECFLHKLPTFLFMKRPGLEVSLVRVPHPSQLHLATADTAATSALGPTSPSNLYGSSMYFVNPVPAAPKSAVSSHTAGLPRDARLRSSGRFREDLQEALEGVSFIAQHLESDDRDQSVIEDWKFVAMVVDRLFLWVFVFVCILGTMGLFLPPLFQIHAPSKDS
Sequence of rat α7 nAChR (Q05941 23-502 limits assumed): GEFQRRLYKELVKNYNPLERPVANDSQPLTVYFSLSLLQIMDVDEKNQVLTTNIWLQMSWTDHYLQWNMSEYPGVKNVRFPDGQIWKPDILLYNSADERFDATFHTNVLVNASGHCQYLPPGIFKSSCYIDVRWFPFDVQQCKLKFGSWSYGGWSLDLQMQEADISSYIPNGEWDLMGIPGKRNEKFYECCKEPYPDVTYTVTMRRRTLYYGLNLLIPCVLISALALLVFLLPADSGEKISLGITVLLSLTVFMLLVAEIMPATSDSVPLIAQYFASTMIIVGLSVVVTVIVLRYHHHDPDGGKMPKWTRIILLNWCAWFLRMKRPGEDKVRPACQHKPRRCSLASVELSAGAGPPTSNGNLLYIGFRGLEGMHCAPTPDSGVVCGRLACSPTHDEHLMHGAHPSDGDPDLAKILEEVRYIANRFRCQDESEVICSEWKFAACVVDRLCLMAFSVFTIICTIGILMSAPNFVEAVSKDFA
Sequence of rat α3β4 nAChR (P04757 26-499 limits assumed): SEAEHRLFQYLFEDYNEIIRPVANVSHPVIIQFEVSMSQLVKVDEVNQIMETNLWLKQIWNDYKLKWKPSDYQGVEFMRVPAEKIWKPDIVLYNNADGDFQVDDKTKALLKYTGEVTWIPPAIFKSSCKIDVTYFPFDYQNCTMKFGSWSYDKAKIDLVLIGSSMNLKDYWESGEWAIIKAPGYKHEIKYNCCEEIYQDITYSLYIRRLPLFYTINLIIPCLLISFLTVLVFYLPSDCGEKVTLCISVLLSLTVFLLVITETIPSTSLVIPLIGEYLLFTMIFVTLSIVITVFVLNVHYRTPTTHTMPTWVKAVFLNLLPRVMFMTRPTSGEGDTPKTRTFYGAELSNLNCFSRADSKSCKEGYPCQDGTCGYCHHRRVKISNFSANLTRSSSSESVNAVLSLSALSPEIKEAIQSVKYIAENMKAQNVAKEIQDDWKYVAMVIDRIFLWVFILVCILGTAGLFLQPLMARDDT
Sequence of rat α3β4 nAChR (P12392 21-495 limits assumed): as the sequence (P12392 21-495 limits assumed) above
Sequence of rat α2β2 nAChR (P12389 28-511 limits assumed): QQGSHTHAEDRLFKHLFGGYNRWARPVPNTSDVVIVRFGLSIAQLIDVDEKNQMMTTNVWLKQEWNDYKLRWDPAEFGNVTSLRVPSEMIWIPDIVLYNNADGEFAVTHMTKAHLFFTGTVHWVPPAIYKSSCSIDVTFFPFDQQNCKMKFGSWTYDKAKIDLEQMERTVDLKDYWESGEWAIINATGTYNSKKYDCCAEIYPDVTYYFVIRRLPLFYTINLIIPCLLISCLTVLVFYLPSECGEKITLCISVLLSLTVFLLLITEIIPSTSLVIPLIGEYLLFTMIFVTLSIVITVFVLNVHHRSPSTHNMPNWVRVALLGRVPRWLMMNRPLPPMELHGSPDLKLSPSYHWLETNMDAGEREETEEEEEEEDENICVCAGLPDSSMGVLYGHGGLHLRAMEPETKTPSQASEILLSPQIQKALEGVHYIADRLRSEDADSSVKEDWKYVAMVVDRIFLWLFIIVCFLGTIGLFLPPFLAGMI
Sequence of rat α2β2 nAChR (P12390 25-500 limits assumed): as the sequence (P12390 25-500 limits assumed) above
Sequence of rat α2β4 nAChR (P12389 28-511 limits assumed): as the sequence (P12389 28-511 limits assumed) above
Sequence of rat α2β4 nAChR (P12392 21-495 limits assumed): as the sequence (P12392 21-495 limits assumed) above
Sequence of human α9α10 nAChR (Q9UGM1 26-479 limits assumed): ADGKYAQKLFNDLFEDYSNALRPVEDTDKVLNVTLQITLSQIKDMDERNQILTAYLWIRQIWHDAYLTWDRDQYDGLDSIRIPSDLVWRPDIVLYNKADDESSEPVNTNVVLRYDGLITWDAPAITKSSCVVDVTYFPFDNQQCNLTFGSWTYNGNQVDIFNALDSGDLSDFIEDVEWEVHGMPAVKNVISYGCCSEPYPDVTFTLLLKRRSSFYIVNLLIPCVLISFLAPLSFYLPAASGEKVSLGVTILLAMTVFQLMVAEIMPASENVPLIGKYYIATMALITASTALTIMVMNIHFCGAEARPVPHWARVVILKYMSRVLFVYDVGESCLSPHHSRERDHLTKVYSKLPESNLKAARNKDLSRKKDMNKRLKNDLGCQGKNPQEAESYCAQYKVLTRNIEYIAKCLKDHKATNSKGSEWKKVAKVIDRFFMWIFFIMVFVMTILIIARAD
Sequence of human α9α10 nAChR (Q9GZZ6 25-450 limits assumed): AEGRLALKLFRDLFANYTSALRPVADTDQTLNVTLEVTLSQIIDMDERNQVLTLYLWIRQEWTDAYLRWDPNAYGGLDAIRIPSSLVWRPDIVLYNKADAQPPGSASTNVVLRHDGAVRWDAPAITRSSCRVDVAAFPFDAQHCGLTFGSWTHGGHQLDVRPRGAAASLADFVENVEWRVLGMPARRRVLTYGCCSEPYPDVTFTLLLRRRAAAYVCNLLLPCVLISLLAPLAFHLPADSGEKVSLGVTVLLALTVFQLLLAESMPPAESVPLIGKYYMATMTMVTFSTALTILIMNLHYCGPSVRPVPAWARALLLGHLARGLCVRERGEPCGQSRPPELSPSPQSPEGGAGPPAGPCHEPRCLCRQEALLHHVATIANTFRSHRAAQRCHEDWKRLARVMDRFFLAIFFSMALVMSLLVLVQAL
Sequence of rat α3β2 nAChR (P04757 26-499 limits assumed): as the sequence (P04757 26-499 limits assumed) above
Sequence of rat α3β2 nAChR (P12390 25-500 limits assumed): as the sequence (P12390 25-500 limits assumed) above

Molecule `CC(C)C[C@@H]1NC(=O)[C@H](CC(=O)O)NC(=O)[C@H](CO)NC(=O)[C@H](Cc2c[nH]cn2)NC(=O)[C@H](CCC(N)=O)NC(=O)[C@H](C(C)C)NC(=O)[C@H](CCC(N)=O)NC(=O)[C@@H]2CSSC[C@H](N)C(=O)N[C@@H](CSSC[C@@H](C(=O)O)NC1=O)C(=O)N[C@@H](CO)C(=O)N[C@@H](CC(N)=O)C(=O)N1CCC[C@H]1C(=O)N[C@@H](C)C(=O)N2` [Δ-CIC] (H-CCSNPACQVQHSDLC-OH; disulfide 1-7, 2-15) has a pIC50 (rat α3β2 nAChR) of 5.34, a pIC50 (rat α6/α3β2β3 nAChR) of 5.97 and a pIC50 (rat α7 nAChR) of less than 5.00. For the same molecule, the “inhibition (in words)” value (rat α7 nAChR) was “no inhibition was detected; also recorded: No effects were observed”, the pIC50 (rat α4β2 nAChR) was less than 5.00 and the “inhibition (in words)” value (rat α4β2 nAChR) was “no inhibition was detected; also recorded: No effects were observed”. The pIC50 (rat α4β4 nAChR) was less than 5.00, the “inhibition (in words)” value (rat α4β4 nAChR) was “no inhibition was detected; also recorded: No effects were observed” and the pIC50 (rat α3β4 nAChR) was less than 5.00. The “inhibition (in words)” value (rat α3β4 nAChR) was “no inhibition was detected; also recorded: No effects were observed”, the pIC50 (rat α2β2 nAChR) was less than 5.00 and the “inhibition (in words)” value (rat α2β2 nAChR) was “no inhibition was detected; also recorded: No effects were observed”. The pIC50 (rat α2β4 nAChR) was less than 5.00, the “inhibition (in words)” value (rat α2β4 nAChR) was “no inhibition was detected; also recorded: No effects were observed” and the pIC50 (human α9α10 nAChR) was less than 5.00. For the same molecule, the “inhibition (in words)” value (human α9α10 nAChR) was “no inhibition was detected; also recorded: No effects were observed” and the “dissociation behavior, CIC versus Δ-CIC” value [1] was “no difference in dissociation behavior”.
